Test results reported in patent publication US11458123B2 (Arvinas, Inc., priority 2016, dated 2022).

System: tau protein
Experiment: Tau protein in vitro degradation assay (Western blot, Tau-13 antibody)
Format: cell-based, human
Conditions: SK-N-SH cells, 72 hours of incubation; for Degradation activity* (highest amount of degradation observed at any dosage; tau protein remaining) / Degradation activity (tau protein remaining; highest amount of degradation observed at any dosage): tested at 300 nM, 100 nM, 33 nM and 11 nM, Western blot, Tau-13 antibody; for Activity* (highest amount of degradation observed at any dosage, as tau protein remaining): tested at 1000 nM, 300 nM and 100 nM
Method: Tau Protein In Vitro Degradation Assay
To determine effect of PROTACs on tau protein degradation SK-N-SH cells were seeded in a 24-well tissue culture-treated plate for at least 18-hours prior to compound addition. Tau PROTACs were evaluated for tau degradation by lysing the cells in lysis buffer with protease inhibitors following a 72-hour incubation with tau PROTACs at 1000 nM, 300 nM and 100 nM for Table 1 and 300 nM, 100 nM, 33 nM and 11 nM for Table 2. Cell lysates were run on standard SDS-PAGE gels, and tau levels were detected by Western blotting using Tau-13 antibody from Abcam (Cambridge, UK) that binds to all forms of human tau.

Compound | Degradation activity* (highest amount of degradation observed at any dosage; tau protein remaining) | further results
O=C1CCC(N2C(=O)c3ccc(OCCCc4ccc(N5CCN(CCCc6ccc(-c7ccc8c(c7)[nH]c7ccncc78)cn6)CC5)nc4)cc3C2=O)C(=O)N1 (stereo not shown) [Compound 55, 5-(3-(6-(4-(3-(5-(5H-pyrido[4,3-b]indol-7-yl)pyridin-2-yl)propyl)piperazin-1-yl)pyridin-3-yl)propoxy)-2-(2,6-dioxopiperidin-3-yl)isoindoline-1,3-dione] | C (>80% tau protein remaining after 72 hours of incubation with the test compound) | –
Cn1c2ccncc2c2ccc(-c3ccc(O[C@H]4C[C@H](OCCOCCOCCOCCOc5ccc6c(c5)C(=O)N(C5CCC(=O)NC5=O)C6=O)C4)nc3)cc21 (stereo partly shown) [Compound 70, 2-(2,6-dioxopiperidin-3-yl)-5-(2-(2-(2-(2-((1r,3r)-3-((5-(5-methyl-5H-pyrido[4,3-b]indol-7-yl)pyridin-2-yl)oxy)cyclobutoxy)ethoxy)ethoxy)ethoxy)ethoxy)isoindoline-1,3-dione] | A (≤50% tau protein remaining after 72 hours of incubation with the test compound) | –
Cn1c2ccncc2c2ccc(-c3ccc(O[C@H]4C[C@H](OC5CCN(c6cccc(C#CCOc7ccc8c(c7)C(=O)N(C7CCC(=O)NC7=O)C8=O)c6)CC5)C4)nc3)cc21 (stereo partly shown) [Compound 198, 2-(2,6-dioxopiperidin-3-yl)-5-((3-(3-(4-((1r,3r)-3-((5-(5-methyl-5H-pyrido[4,3-b]indol-7-yl)pyridin-2-yl)oxy)cyclobutoxy)piperidin-1-yl)phenyl)prop-2-yn-1-yl)oxy)isoindoline-1,3-dione] | – | Degradation activity (tau protein remaining; highest amount of degradation observed at any dosage): A (≤50% tau protein remaining after 72 hours of incubation with the test compound)
Cn1c2ccncc2c2ccc(-c3ccc(O[C@H]4C[C@H](Oc5cnc(CCCCCCOc6ccc7c(c6)C(=O)N(C6CCC(=O)NC6=O)C7=O)nc5)C4)nc3)cc21 (stereo partly shown) [Compound 151, 2-(2,6-dioxopiperidin-3-yl)-5-((6-(5-((1r,3r)-3-((5-(5-methyl-5H-pyrido[4,3-b]indol-7-yl)pyridin-2-yl)oxy)cyclobutoxy)pyrimidin-2-yl)hexyl)oxy)isoindoline-1,3-dione] | B (≤80% and >50% tau protein remaining after 72 hours of incubation with the test compound) | –
Cn1c2ccncc2c2ccc(-c3ccc(N4CC(OCCCCCOCCCCCOc5ccc6c(c5)C(=O)N(C5CCC(=O)NC5=O)C6=O)C4)nc3)cc21 (stereo not shown) [Compound 115, 2-(2,6-dioxopiperidin-3-yl)-5-((5-((5-((1-(5-(5-methyl-5H-pyrido[4,3-b]indol-7-yl)pyridin-2-yl)azetidin-3-yl)oxy)pentyl)oxy)pentyl)oxy)isoindoline-1,3-dione] | C (>80% tau protein remaining after 72 hours of incubation with the test compound) | –
Cn1c2ccncc2c2ccc(-c3ccc(O[C@H]4C[C@H](Oc5cccc(OCCCCCCOc6ccc7c(c6)C(=O)N(C6CCC(=O)NC6=O)C7=O)c5)C4)nc3)cc21 (stereo partly shown) [Compound 84, 2-(2,6-dioxopiperidin-3-yl)-5-((6-(3-((1r,3r)-3-((5-(5-methyl-5H-pyrido[4,3-b]indol-7-yl)pyridin-2-yl)oxy)cyclobutoxy)phenoxy)hexyl)oxy)isoindoline-1,3-dione] | C (>80% tau protein remaining after 72 hours of incubation with the test compound) | –
Cn1c2ccncc2c2ccc(-c3ccc(O[C@H]4C[C@H](C(=O)N5CC6(CC(OCCCCOc7ccc8c(c7)C(=O)N(C7CCC(=O)NC7=O)C8=O)C6)C5)C4)nc3)cc21 (stereo partly shown) [Compound 157, 2-(2,6-dioxopiperidin-3-yl)-5-(4-((2-((1r,3r)-3-((5-(5-methyl-5H-pyrido[4,3-b]indol-7-yl)pyridin-2-yl)oxy)cyclobutane-1-carbonyl)-2-azaspiro[3.3]heptan-6-yl)oxy)butoxy)isoindoline-1,3-dione] | C (>80% tau protein remaining after 72 hours of incubation with the test compound) | –
Cc1ncoc1-c1ccc([C@H](C)NC(=O)[C@@H]2C[C@@H](O)CN2C(=O)[C@@H](NC(=O)COCCOCCOCC(=O)N2CCN(c3ccn4c(n3)nc3ccccc34)CC2)C(C)(C)C)cc1 [Compound 21, (2S,4R)-1-((S)-14-(4-(benzo[4,5]imidazo[1,2-a]pyrimidin-2-yl)piperazin-1-yl)-2-(tert-butyl)-4,14-dioxo-6,9,12-trioxa-3-azatetadecanoyl)-4-hydroxy-N—((S)-1-(4-(4-methyloxazol-5-yl)phenyl)ethyl)pyrrolidine-2-carboxamide] | – | Activity* (highest amount of degradation observed at any dosage, as tau protein remaining): C (>80% tau protein remaining after 72 hours of incubation with the test compound)
O=C1CCC(N2C(=O)c3ccc(N4CC(OCC#Cc5ccc(O[C@H]6C[C@H](Oc7ccc(-c8ccc9c(c8)[nH]c8ccncc89)cn7)C6)cn5)C4)cc3C2=O)C(=O)N1 (stereo partly shown) [Compound 194, 5-(3-((3-(5-((1r,3r)-3-((5-(5H-pyrido[4,3-b]indol-7-yl)pyridin-2-yl)oxy)cyclobutoxy)pyridin-2-yl)prop-2-yn-1-yl)oxy)azetidin-1-yl)-2-(2,6-dioxopiperidin-3-yl)isoindoline-1,3-dione] | – | Degradation activity (tau protein remaining; highest amount of degradation observed at any dosage): C (>80% tau protein remaining after 72 hours of incubation with the test compound)
Cn1c2ccncc2c2ccc(-c3ccc(O[C@H]4C[C@H](Oc5ccc(C#CCOc6ccc7c(c6)C(=O)N(C6CCC(=O)NC6=O)C7=O)nc5)C4)nc3)cc21 (stereo partly shown) [Compound 117, 2-(2,6-dioxopiperidin-3-yl)-5-((3-(5-((1r,3r)-3-((5-(5-methyl-5H-pyrido[4,3-b]indol-7-yl)pyridin-2-yl)oxy)cyclobutoxy)pyridin-2-yl)prop-2-yn-1-yl)oxy)isoindoline-1,3-dione] | C (>80% tau protein remaining after 72 hours of incubation with the test compound) | –
Cn1c2ccncc2c2ccc(-c3ccc(O[C@H]4C[C@H](OCCCCCN5CCN(c6ccc7c(c6)C(=O)N(C6CCC(=O)NC6=O)C7=O)CC5)C4)nc3)cc21 (stereo partly shown) [Compound 68, 2-(2,6-dioxopiperidin-3-yl)-5-(4-(5-((1r,3r)-3-((5-(5-methyl-5H-pyrido[4,3-b]indol-7-yl)pyridin-2-yl)oxy)cyclobutoxy)pentyl)piperazin-1-yl)isoindoline-1,3-dione] | C (>80% tau protein remaining after 72 hours of incubation with the test compound) | –
Cc1ncsc1-c1ccc(CNC(=O)[C@@H]2C[C@@H](O)CN2C(=O)[C@H](C(C)C)N2Cc3ccccc3C2=O)c(OCCOc2ccc(-c3ccc4c(c3)[nH]c3ccncc34)cn2)c1 [Compound 185, (2S,4R)—N-(2-(2-((5-(5H-pyrido[4,3-b]indol-7-yl)pyridin-2-yl)oxy)ethoxy)-4-(4-methylthiazol-5-yl)benzyl)-4-hydroxy-1-((S)-3-methyl-2-(1-oxoisoindolin-2-yl)butanoyl)pyrrolidine-2-carboxamide] | – | Degradation activity (tau protein remaining; highest amount of degradation observed at any dosage): C (>80% tau protein remaining after 72 hours of incubation with the test compound)
Cc1ncsc1-c1ccc([C@H](C)NC(=O)[C@@H]2C[C@@H](O)CN2C(=O)[C@@H](NC(=O)COCCOCCOCCN2CCN(c3ccn4c(n3)nc3ccccc34)CC2)C(C)(C)C)cc1 [Compound 15, (2S,4R)-1-((S)-14-(4-(benzo[4,5]imidazo[1,2-a]pyrimidin-2-yl)piperazin-1-yl)-2-(tert-butyl)-4-oxo-6,9,12-trioxa-3-azatetradecanoyl)-4-hydroxy-N—((S)-1-(4-(4-methylthiazol-5-yl)phenyl)ethyl)pyrrolidine-2-carboxamide] | – | Activity* (highest amount of degradation observed at any dosage, as tau protein remaining): C (>80% tau protein remaining after 72 hours of incubation with the test compound)
Cn1c2ccncc2c2ccc(-c3ccc(OCCCCCOCCCCCN4CC(Oc5ccc6c(c5)C(=O)N(C5CCC(=O)NC5=O)C6=O)C4)nc3)cc21 (stereo not shown) [Compound 80, 2-(2,6-dioxopiperidin-3-yl)-5-((1-(5-((5-((5-(5-methyl-5H-pyrido[4,3-b]indol-7-yl)pyridin-2-yl)oxy)pentyl)oxy)pentyl)azetidin-3-yl)oxy)isoindoline-1,3-dione] | A (≤50% tau protein remaining after 72 hours of incubation with the test compound) | –
Cn1c2ccncc2c2ccc(-c3ccc(O[C@H]4C[C@H](Oc5ccc(CCCCCCOc6ccc7c(c6)C(=O)N(C6CCC(=O)NC6=O)C7=O)nc5)C4)nc3)cc21 (stereo partly shown) [Compound 98, 2-(2,6-dioxopiperidin-3-yl)-5-((6-(5-((1r,3r)-3-((5-(5-methyl-5H-pyrido[4,3-b]indol-7-yl)pyridin-2-yl)oxy)cyclobutoxy)pyridin-2-yl)hexyl)oxy)isoindoline-1,3-dione] | B (≤80% and >50% tau protein remaining after 72 hours of incubation with the test compound) | –
Cc1ncoc1-c1ccc(CNC(=O)[C@@H]2C[C@@H](O)CN2C(=O)[C@@H](NC(=O)COCCOCCOCCN2CCN(c3ccn4c(n3)nc3ccccc34)CC2)C(C)(C)C)cc1 [Compound 11, (2S,4R)-1-((S)-14-(4-(benzo[4,5]imidazo[1,2-a]pyrimidin-2-yl)piperazin-1-yl)-2-(tert-butyl)-4-oxo-6,9,12-trioxa-3-azatetradecanoyl)-4-hydroxy-N-(4-(4-methyloxazol-5-yl)benzyl)pyrrolidine-2-carboxamide] | – | Activity* (highest amount of degradation observed at any dosage, as tau protein remaining): C (>80% tau protein remaining after 72 hours of incubation with the test compound)
